Values of other authors as cited in patent US9017727B2, “Amino acid composition with improved dispersibility” (N.V. Nutricia, priority 2009, dated 2015).

Conditions: in water at 20 degrees Celsius

For `CC[C@H](C)[C@H](N)C(=O)O` [Isoleucine], the “Solubility (at 20° C.) (g/100 ml)” value is given as 4.02 g/100 ml.

In the case of Cysteine HCL-anhydrous, the “Solubility (at 20° C.) (g/100 ml)” value is given as 102 g/100 ml.

In the case of `C[C@H](N)C(=O)O` [L-Alanine], the “Solubility (at 20° C.) (g/100 ml)” value is given as 15.8 g/100 ml.

For `NC(=O)CC[C@H](N)C(=O)O` [Glutamine], the “Solubility (at 20° C.) (g/100 ml)” value is listed as 3.73 g/100 ml.

For `CC(C)[C@H](N)C(=O)O` [Valine], the “Solubility (at 20° C.) (g/100 ml)” value is given as 5.75 g/100 ml.

For `N[C@@H](Cc1c[nH]c2ccccc12)C(=O)O` [Tryptophan], the “Solubility (at 20° C.) (g/100 ml)” value is given as 1.06 g/100 ml.

In the case of `CC(C)C[C@H](N)C(=O)O` [Leucine], the “Solubility (at 20° C.) (g/100 ml)” value is listed as 2.38 g/100 ml.

In the case of `N[C@@H](CSSC[C@H](N)C(=O)O)C(=O)O` [Cystine], the “Solubility (at 20° C.) (g/100 ml)” value is listed as 0.009 g/100 ml.

In the case of `CSCC[C@H](N)C(=O)O` [Methionine], the “Solubility (at 20° C.) (g/100 ml)” value is given as 4.8 g/100 ml.

In the case of `CC(=O)N[C@@H](CS)C(=O)O` [N-acetyl cysteine], the “Solubility (at 20° C.) (g/100 ml)” value is given as 17 g/100 ml.

In the case of `N[C@@H](Cc1c[nH]cn1)C(=O)O` [Histidine], the “Solubility (at 20° C.) (g/100 ml)” value is given as 3.84 g/100 ml.

For `N[C@@H](CS)C(=O)O` [Cysteine], the “Solubility (at 20° C.) (g/100 ml)” value is given as 16 g/100 ml.

In the case of `N[C@@H](Cc1ccccc1)C(=O)O` [Phenylalanine], the “Solubility (at 20° C.) (g/100 ml)” value is listed as 2.74 g/100 ml.
